These compounds were tested on HEK293T cells carrying the ATF4 luciferase reporter (assay: ATF4-Luc assay (in vitro model of vanishing white matter disease)). Conditions: Homo sapiens, HEK-293T; HEK293T cells with ATF4 luciferase reporter, 1 μg/mL tunicamycin, 7 hours, One Glo luminescence.
Type: cell-based
Procedure: In order to test exemplary compounds of the invention in a cellular context, a stable VWMD cell line was first constructed. The ATF4 reporter was prepared by fusing the human full-length ATF4 5′-UTR (NCBI Accession No. BC022088.2) in front of the firefly luciferase (FLuc) coding sequence lacking the initiator methionine as described in Sidrauski et al (eLife 2013). The construct was used to produce recombinant retroviruses using standard methods and the resulting viral supernatant was used to transduce HEK293T cells, which were then subsequently selected with puromycin to generate a stable cell line.
HEK293T cells carrying the ATF4 luciferase reporter were plated on polylysine coated 384-well plates (Greiner Bio-one) at 30,000 cells per well. Cells were treated the next day with 1 μg/mL tunicamycin and 200 nM of a compound of Formula (I) for 7 hours. Luminescence was measured using One Glo (Promega) as specified by the manufacturer. Cells were maintained in DMEM with L-glutamine supplemented with 10% heat-inactivated FBS (Gibco) and Antibiotic-Antimycotic solution (Gibco).
Table 2 below summarizes the EC50 data obtained using the ATF4-Luc assay for exemplary compounds of the invention.
Work on `O=C(COc1ccc(Cl)c(F)c1)NC12CC(NC(=O)[C@@H]3COc4ccccc4O3)(C1)C2` [Compound 125, (2S)—N-{3-[2-(4-chloro-3-fluorophenoxy)acetamido]bicyclo[1.1.1]pentan-1-yl}-2,3-dihydro-1,4-benzodioxine-2-carboxamide] yielded an EC50 of 50 to 250 nM. Work on `O=C(COc1ccc(Cl)c(F)c1)NC12CC(NC(=O)[C@H]3CN(C(=O)[C@H]4C[C@H]4F)c4cc(Cl)ccc4O3)(C1)C2` (single isomer, unassigned) [Compound 142] yielded an EC50 of 50 to 250 nM. Work on `O=C(COc1ccc(Cl)c(F)c1)NC12CC(NC(=O)C3CN(C(=O)c4ccc(OC(F)(F)F)cc4)c4cc(Cl)ccc4O3)(C1)C2` (stereo not drawn) [Compound 143, 6-chloro-N-{3-[2-(4-chloro-3-fluorophenoxy)acetamido]bicyclo[1.1.1]pentan-1-yl}-4-[4-(trifluoromethoxy)benzoyl]-3,4-dihydro-2H-1,4-benzoxazine-2-carboxamide] yielded an EC50 of 500 to 2000 nM. Work on `O=C(CN1CCc2cc(Cl)ccc21)NC12CCC(NC(=O)COc3ccc(Cl)c(F)c3)(CC1)[C@@H](O)C2` [Compound 101, 2-(5-chloro-2,3-dihydro-1H-indol-1-yl)-N-{(3S)-4-[2-(4-chloro-3-fluorophenoxy)acetamido]-3-hydroxybicyclo[2.2.2]octan-1-yl}acetamide] yielded an EC50 of 500 to 2000 nM. `O=C(COc1ccc(Cl)c(F)c1)NC12CCC(NC(=O)C3Oc4ccccc4O3)(CC1)CC2` [Compound 100, N-{4-[2-(4-chloro-3-fluorophenoxy)acetamido]bicyclo[2.2.2]octan-1-yl}-2H-1,3-benzodioxole-2-carboxamide] gave an EC50 of over 2000 nM. `CC(=O)N1CC(C(=O)NC23CC(NC(=O)COc4ccc(Cl)c(F)c4)(C2)C3)Oc2ccc(Cl)cc21` (stereo not drawn) [Compound 157, 4-acetyl-6-chloro-N-{3-[2-(4-chloro-3-fluorophenoxy)acetamido]bicyclo[1.1.1]pentan-1-yl}-3,4-dihydro-2H-1,4-benzoxazine-2-carboxamide] gave an EC50 of 10 to 50 nM. `Cc1oncc1C(=O)N1CC(C(=O)NC23CC(NC(=O)COc4ccc(Cl)c(F)c4)(C2)C3)Oc2ccc(Cl)cc21` (stereo not drawn) [Compound 153, 6-chloro-N-{3-[2-(4-chloro-3-fluorophenoxy)acetamido]bicyclo[1.1.1]pentan-1-yl}-4-(5-methyl-1,2-oxazole-4-carbonyl)-3,4-dihydro-2H-1,4-benzoxazine-2-carboxamide] gave an EC50 of 10 to 50 nM. With `Cc1ccc(C(=O)N2CC(C(=O)NC34CC(NC(=O)COc5ccc(Cl)c(F)c5)(C3)C4)Oc3ccc(Cl)cc32)o1` (stereo not drawn) [Compound 145, 6-chloro-N-{3-[2-(4-chloro-3-fluorophenoxy)acetamido]bicyclo[1.1.1]pentan-1-yl}-4-(5-methylfuran-2-carbonyl)-3,4-dihydro-2H-1,4-benzoxazine-2-carboxamide] the EC50 was 50 to 250 nM. Compound `O=C(O)CC1c2ccccc2CCN1C(=O)NC12CC(NC(=O)COc3ccc(Cl)c(F)c3)(C1)C2` (stereo not drawn) [Compound 155, [2-({3-[2-(4-chloro-3-fluorophenoxy)acetamido]bicyclo[1.1.1]pentan-1-yl}carbamoyl)-1,2,3,4-tetrahydroisoquinolin-1-yl]acetic Acid] has an EC50 of over 2000 nM. Compound `O=C(COc1ccc(Cl)c(F)c1)NC12CC(NC(=O)[C@@H]3CNc4cc(Cl)ccc4O3)(C1)C2` (single isomer, unassigned) [Compound 103] has an EC50 of under 10 nM. `O=C(COc1ccc(Cl)c(Cl)c1)NC12CCC(NC(=O)[C@H]3COc4cc(Cl)ccc4O3)(CC1)C[C@@H]2O` [Compound 116, (2R)-6-chloro-N-{(3S)-4-[2-(3,4-dichlorophenoxy)acetamido]-3-hydroxybicyclo[2.2.2]octan-1-yl}-2,3-dihydro-1,4-benzodioxine-2-carboxamide] showed an EC50 of under 10 nM. `COCCC(=O)N1CC(C(=O)NC23CC(NC(=O)COc4ccc(Cl)c(F)c4)(C2)C3)Oc2ccc(Cl)cc21` (stereo not drawn) [Compound 181, 6-chloro-N-{3-[2-(4-chloro-3-fluorophenoxy)acetamido]bicyclo[1.1.1]pentan-1-yl}-4-(3-methoxypropanoyl)-3,4-dihydro-2H-1,4-benzoxazine-2-carboxamide] gave an EC50 of 10 to 50 nM. For `O=C(COc1ccc(Cl)c(F)c1)NC12CC(NC(=O)C3CN(S(=O)(=O)c4ccc(F)cc4)c4cc(Cl)ccc4O3)(C1)C2` (stereo not drawn) [Compound 166, 6-chloro-N-{3-[2-(4-chloro-3-fluorophenoxy)acetamido]bicyclo[1.1.1]pentan-1-yl}-4-(4-fluorobenzene-1-sulfonyl)-3,4-dihydro-2H-1,4-benzoxazine-2-carboxamide], the EC50 was 500 to 2000 nM. For `O=C(COc1ccc(Cl)c(F)c1)NC12CC(NC(=O)[C@H]3Cc4ccccc4N3)(C1)C2` [Compound 128, (2R)—N-{3-[2-(4-chloro-3-fluorophenoxy)acetamido]bicyclo[1.1.1]pentan-1-yl}-2,3-dihydro-1H-indole-2-carboxamide], the EC50 was 50 to 250 nM. `O=C(COc1ccc(Cl)c(F)c1)NC12CC(NC(=O)[C@H]3CNc4cc(Cl)ccc4O3)(C1)C2` (single isomer, unassigned) [Compound 102] gave an EC50 of under 10 nM. Compound `O=C(COc1ccc(Cl)c(F)c1)NC12CC(NC(=O)C3CN(C(=O)[C@H]4C[C@@H]4F)c4cc(Cl)ccc4O3)(C1)C2` (stereo partly drawn) [Compound 138, 6-chloro-N-{3-[2-(4-chloro-3-fluorophenoxy)acetamido]bicyclo[1.1.1]pentan-1-yl}-4-[(1R,2S)-2-fluorocyclopropane-1-carbonyl]-3,4-dihydro-2H-1,4-benzoxazine-2-carboxamide] has an EC50 of 250 to 500 nM. Work on `O=C(COc1ccc(Cl)c(F)c1)NC12CCC(NC(=O)C3CCc4cc(F)ccc4O3)(CC1)[C@@H](O)C2` (stereo partly drawn) [Compound 200, N-{(2S)-4-[2-(4-chloro-3-fluorophenoxy)acetamido]-2-hydroxybicyclo[2.2.2]octan-1-yl}-6-fluoro-3,4-dihydro-2H-1-benzopyran-2-carboxamide] yielded an EC50 of under 10 nM. Compound `C[C@@]1(C(=O)NC23CC(NC(=O)COc4ccc(Cl)c(F)c4)(C2)C3)COc2cc3c(cc21)OC(F)(F)O3` [Compound 130, (7S)—N-{3-[2-(4-chloro-3-fluorophenoxy)acetamido]bicyclo[1.1.1]pentan-1-yl}-2,2-difluoro-7-methyl-6,7-dihydro-2H-furo[2,3-f][1,3]benzodioxole-7-carboxamide] has an EC50 of over 2000 nM. In the case of `O=C(COc1ccc(Cl)c(F)c1)NC12CC(NC(=O)C3CN(C(=O)c4ccc(S(=O)(=O)F)cc4)c4cc(Cl)ccc4O3)(C1)C2` (stereo not drawn) [Compound 147, 4-[6-chloro-2-({3-[2-(4-chloro-3-fluorophenoxy)acetamido]bicyclo[1.1.1]pentan-1-yl}carbamoyl)-2,3-dihydro-4H-1,4-benzoxazine-4-carbonyl]benzene-1-sulfonyl fluoride], the EC50 is reported as 500 to 2000 nM. In the case of `O=C(COc1ccc(Cl)c(F)c1)NC12CC(NC(=O)C3CN(C(=O)CC(F)(F)C(F)(F)F)c4cc(Cl)ccc4O3)(C1)C2` (stereo not drawn) [Compound 141, 6-chloro-N-{3-[2-(4-chloro-3-fluorophenoxy)acetamido]bicyclo[1.1.1]pentan-1-yl}-4-(3,3,4,4,4-pentafluorobutanoyl)-3,4-dihydro-2H-1,4-benzoxazine-2-carboxamide], the EC50 is reported as 10 to 50 nM. For `Cn1cnc(S(=O)(=O)N2CC(C(=O)NC34CC(NC(=O)COc5ccc(Cl)c(F)c5)(C3)C4)Oc3ccc(Cl)cc32)c1` (stereo not drawn) [Compound 165, 6-chloro-N-{3-[2-(4-chloro-3-fluorophenoxy)acetamido]bicyclo[1.1.1]pentan-1-yl}-4-(1-methyl-1H-imidazole-4-sulfonyl)-3,4-dihydro-2H-1,4-benzoxazine-2-carboxamide], the EC50 was 10 to 50 nM. `O=C(COc1ccc(Cl)c(F)c1)NC12CC(NC(=O)C3CC(NCCO)c4cc(Cl)ccc4O3)(C1)C2` (stereo not drawn) [Compound 188, 6-chloro-N-{3-[2-(4-chloro-3-fluorophenoxy)acetamido]bicyclo[1.1.1]pentan-1-yl}-4-[(2-hydroxyethyl)amino]-3,4-dihydro-2H-1-benzopyran-2-carboxamide] showed an EC50 of 10 to 50 nM. For `O=C(COc1ccc(Cl)c(F)c1)NC12CC(NC(=O)[C@@H]3C[C@H](O)c4cc(Cl)ccc4O3)(C1)C2` (single isomer, unassigned) [Compound 195], the EC50 was under 10 nM. Compound `CCOCCS(=O)(=O)N1CC(C(=O)NC23CC(NC(=O)COc4ccc(Cl)c(F)c4)(C2)C3)Oc2ccc(Cl)cc21` (stereo not drawn) [Compound 139, 6-chloro-N-{3-[2-(4-chloro-3-fluorophenoxy)acetamido]bicyclo[1.1.1]pentan-1-yl}-4-(2-ethoxyethanesulfonyl)-3,4-dihydro-2H-1,4-benzoxazine-2-carboxamide] has an EC50 of 50 to 250 nM. With `COc1ccc(S(=O)(=O)N2CC(C(=O)NC34CC(NC(=O)COc5ccc(Cl)c(F)c5)(C3)C4)Oc3ccc(Cl)cc32)cc1` (stereo not drawn) [Compound 164, 6-chloro-N-{3-[2-(4-chloro-3-fluorophenoxy)acetamido]bicyclo[1.1.1]pentan-1-yl}-4-(4-methoxybenzene-1-sulfonyl)-3,4-dihydro-2H-1,4-benzoxazine-2-carboxamide] the EC50 was over 2000 nM. Work on `Cc1ncc(S(=O)(=O)N2CC(C(=O)NC34CC(NC(=O)COc5ccc(Cl)c(F)c5)(C3)C4)Oc3ccc(Cl)cc32)n1C` (stereo not drawn) [Compound 137, 6-chloro-N-{3-[2-(4-chloro-3-fluorophenoxy)acetamido]bicyclo[1.1.1]pentan-1-yl}-4-(1,2-dimethyl-1H-imidazole-5-sulfonyl)-3,4-dihydro-2H-1,4-benzoxazine-2-carboxamide] yielded an EC50 of over 2000 nM. `O=C(COc1ccc(Cl)c(F)c1)NC12CC(NC(=O)C3COc4ccccc4O3)(C1)C2` (stereo not drawn) [Compound 122, N-{3-[2-(4-chloro-3-fluorophenoxy)acetamido]bicyclo[1.1.1]pentan-1-yl}-2,3-dihydro-1,4-benzodioxine-2-carboxamide] showed an EC50 of 10 to 50 nM.

Source: US20210169892A1, “MODULATORS OF THE INTEGRATED STRESS PATHWAY” (Calico Life Sciences LLC, priority 2017, published 2021)
